Legend:
K562 cells = assay: Cell cycle analysis by flow cytometer, K562; format: cell-based; design: S %: dose or concentration left out as unconfirmed; details: 72 h
Method: (§1) Retinoic acid derivatives and fenretinide are prepared as a storage solution of 10 mg/mL by anhydrous ethanol and stored at […] and kept out of light.
(§2) NB4 cells and K562 cells are inoculated with an initial concentration of 2*10^5/ml in the RPMI1640 culture solution having 10% of calf serum (FBS), 100 u/ml of penicillin, 100 Lg/ml of streptomycin and 2 mmol/L of glutamine for suspension culture (37° C., 5% CO2). Change the solution every 2-3 days.
(§3) For the cells above acted by the retinoic acid derivatives and fenretinide ([…]) for 72 h, about 10^6 of them are collected, washed by PBS twice, fixed by 70% of cold ethanol over 24 h, washed by PBS twice, added with 5 ug/ml of propidium iodide for staining and detected by a flow cytometer from which the data are analyzed and processed by the multi-cycle software.

NB4 cells = assay: Cell cycle analysis by flow cytometer, NB4; format: cell-based; design: S %: dose or concentration left out as unconfirmed; details: 72 h
Method: as §1, §2, §3

apoptosis = details: cited from earlier work
[1] = patient, dosage 200 mg/day; cited from earlier work

Row | Compound | G1 % (K562 cells) [%] | G2 % (K562 cells) [%] | S % (K562 cells) [%] | G1 % (NB4 cells) [%] | G2 % (NB4 cells) [%] | S % (NB4 cells) [%] | effective concentration required to generate apoptosis in vivo (apoptosis) [µM] | plasma concentration [1]
1 | CC1=C(/C=C/C(C)=C/C=C/C(C)=C/C(=O)Nc2cccc(OC(F)(F)F)c2)C(C)(C)CCC1 [Example 6a-02, (3-trifluoromethoxyphenyl)-(all-trans)-3,7-dimethyl-9-(2,6,6-trimethyl-1-cyclohexen-1-yl)-2,4,6,8-nonatetraenoic acid amide] | 32.2 | 10.9 | 56.8 | 75.47 | 5.52 | 19.01 | – | –
2 | CC1=C(/C=C/C(C)=C/C=C/C(C)=C/C(=O)Oc2ccc(N)cc2C(F)(F)F)C(C)(C)CCC1 [Example 4a-02, (4-amino-2-trifluoromethylphenyl)-(all-trans)-3,7-dimethyl-9-(2,6,6-trimethyl-1-cyclohexen-1-yl)-2,4,6,8-nonatetraenoate] | 33.1 | 11.5 | 55.4 | 52.59 | 7.68 | 39.73 | – | –
3 | CC1=C(/C=C/C(C)=C/C=C/C(C)=C/C(=O)Nc2cccc(C(F)(F)F)c2)C(C)(C)CCC1 [Example 3a-02, (3-trifluoromethylphenyl)-(all-trans)-3,7-dimethyl-9-(2,6,6-trimethyl-1-cyclohexen-1-yl)-2,4,6,8-nonatetraenoic acid amide] | 39.7 | 6.0 | 54.2 | 45.83 | 2.87 | 51.30 | – | –
4 | CC1=C(/C=C/C(C)=C/C=C/C(C)=C/C(=O)Oc2ccccc2C(F)(F)F)C(C)(C)CCC1 [Example 2a-03, (2-trifluoromethylphenyl)-(all-trans)-3,7-dimethyl-9-(2,6,6-trimethyl-1-cyclohexen-1-yl)-2,4,6,8-nonatetraenoate] | 45.1 | 7.6 | 47.3 | 65.72 | 5.54 | 28.74 | – | –
5 | CC1=C(/C=C/C(C)=C/C=C/C(C)=C/C(=O)Nc2ccc(O)cc2)C(C)(C)CCC1 [Fenretinide, reference compound] | 33.5 | 9.0 | 57.5 | 63.25 | 4.03 | 33.72 | 101 | lower than 1 μM
